We go through 62 compounds from a melting point compilation (Tetko et al.; mined from patent text by program, amines drawn as free bases though some values may be those of a salt).

The structures appear in SMILES notation.

The melting point is the temperature of the solid-liquid transition. Turning to `CCOC(=O)CNc1ncccc1NC(=O)c1cccc(Cl)c1`, the melting point was 143 to 144 °C.

`Nc1ccc(Cn2cnnn2)cc1` came in with a melting point of 138 to 140 °C. The value for `C=CCN(CCC)S(=O)(=O)NC(=O)c1cc(N)c(F)cc1Cl` was 104 to 106 °C. In the case of `O=C(NCC1COCCO1)C1CCCN(c2cccc3c2C(=O)N(Cc2ccncc2)C3=O)C1` (configuration not stated), the melting point fell in the range of 186 to 187 °C.

`CCCOc1ccccc1-c1nc2nc(SC)nnc2c(=O)[nH]1`: the melting point was in the range of 247 to 249 °C. Next, `CC(C)(C)n1ncc(N)c(Cl)c1=O`: 194 to 198 °C; `CCC(CC)CC(=O)C1=C(O)c2cc(OC)c(OC)c(OC)c2C(O)(c2ccc(OC)c(OC)c2)C1C(=O)OC` (configuration not stated): 132 to 133 °C. Next, `COc1ccc(NC(=NC#N)NC(NC(=O)c2cccc(Cl)c2)C(C)(Cl)Cl)cn1` (configuration not stated): 189 to 190 °C.

Take `Cc1noc(NC(=O)N2CCN(c3nc(-c4ccc(F)cc4F)cs3)CC2)c1C`: the melting point lay within 166 to 167 °C. In turn, `Nc1nc2ccccc2c2c1nc(CCO)n2CC1(O)CCC1` had a melting point of 132 to 137 °C. Compound `Cc1noc(NS(=O)(=O)c2cc(Cl)sc2Cl)c1Br` showed a melting point of 135 to 138 °C. Consider `COC(=O)c1cc(C)cc(CNO)c1`, for which the melting point was in the range of 99 to 100 °C.

The compound `O=c1[nH]c2ccccc2n(Cc2nnn[nH]2)c1=O` gave a melting point of 320 °C. For `CCN(CC)CCOCCC1CCN(C(=O)N2c3ccccc3C(=O)Nc3cccnc32)CC1`, the melting point lay within 119 to 120 °C.

The compound `Cc1cc(CC(=O)OC(C)(C)C)ccc1NC(=O)Nc1ccccc1` came in with a melting point of 143 to 145 °C. Take `CCOC(=O)C(=CNC(C)(C)C)C(=O)c1cc(F)c(F)c(F)c1F`: the melting point was determined as 112 °C. In turn, `CNC(=O)C(C)NC(=O)OC(C)(C)C` (configuration not stated) displayed a melting point of 117 to 118 °C. Next, `O=C(COc1cc(Cl)c(Cl)c([N+](=O)[O-])c1)c1ccccc1`: 118 to 126 °C; `CCCCCCON=C(C(=O)OCC)c1csc(N)n1`: 77 to 78 °C. The value for `CCOC(=O)[C@@H]1OC(c2ccc3c(c2)OCO3)O[C@H]1C(=O)OCC` was 39 to 40 °C; that for `NC(=O)c1cc(F)cc(-c2ccc(F)c3cc(Cc4cccc(C(F)(F)F)c4)sc23)c1` was 161 to 162 °C; that for `CCOC(=O)c1ccc(-c2ccc(-c3ccc(Cl)cc3)s2)cc1` was 167 to 168 °C. Next, `CC1(C)OC(=O)Nc2c(Br)cc(-c3ccc(F)c(C#N)c3)cc21`: 235 to 236 °C. Consider `CC(C)(C)NCC(O)COc1ccc2oc(-c3ccc(O)c(O)c3)cc(=O)c2c1` (configuration not stated), for which the melting point worked out at 193 °C.

Regarding `CCn1cnc2c(Nc3ccc(NC(=O)OC)cc3)nc(N[C@H]3CC[C@H](O)CC3)nc21`, the melting point lay in the range of 131 to 135 °C. The value for `CCCCCC(=O)OCc1nccc(Oc2ccc3c(C(=O)OCC)csc3c2)n1` was 51 °C. `O=C(O)C1=C(c2cc(-c3ccccc3)[nH]n2)CCCC1` had a melting point of 207 to 209 °C. Next, `c1ccc2cc(CC[C@H]3CNCCN3)ccc2c1`: 151 to 154 °C.

The compound `Cc1nc2scc(C)n2c(=O)c1CCN1CCC(C(=O)c2ccc(F)cc2)CC1` came in with a melting point of 200 °C. With `C[C@H](NC(CCC(=O)O)C(=O)O)C(=O)N1CCC[C@H]1C(=O)O` (some centres not stated), the melting point was in the range of 140 to 160 °C.

On to `O=C1c2c(-c3ccccc3)c3ccccc3c(=O)n2CCN1Cc1cc(C(F)(F)F)cc(C(F)(F)F)c1`, for which the melting point was 194 to 196 °C. Regarding `CC(CNc1nc(N)nc2c1ncn2C1OC(CO)C(O)C1O)(c1ccccc1)c1ccccc1` (configuration not stated), the melting point lay within 129 to 132 °C. Next, `CC(C)CCS(=O)C1=C(O)CC(C)(C)CC1=O` (configuration not stated): 64.5 to 66 °C; `CC(=O)OCC(=O)[C@@]1(O)CCc2c(O)c3c(c(O)c2C1)C(=O)c1cccc(O)c1C3=O`: 215 to 217 °C. Take `COc1c(F)c(F)c(N)c2c(=O)c(C(=O)O)cn(Cc3ccccc3)c12`: the melting point was 208 to 210 °C. Next, `Cc1nc2c(-c3cccc(N4CCN(C)CC4)c3)cnn2c(N)c1-c1ccc(F)c(Cl)c1`: 224 to 226 °C. The compound `Cc1cc2ncc(NC(=O)C=Cc3ccc(O)c(O)c3)c(-c3ccccc3Cl)c2cc1C` gave a melting point of 272 to 274 °C.

As to `COc1ccc2c(c1)CCC1C2CCC2(C)C(=O)CC(C)(C(C)C)C12` (configuration not stated), the melting point is 113 to 115 °C.

With `CC1(C)CN(Cc2cc3ncccc3o2)c2nc(-c3ccncc3)cc(=O)n2C1`, the melting point was 170 to 171 °C. Next, `CC(C)(C)c1ccc(C(=O)Nc2cn3cc(-c4ccoc4)ccc3n2)cc1`: 258 to 259 °C; `N#Cc1cc(Oc2ccccc2)ccc1O`: 112 to 114 °C.

`CC(O)C(=O)Nc1ccc(C2=NNC(=O)NC2C)cc1` (configuration not stated) returned a melting point of 217 to 225 °C. The value for `CC12C=CC(=O)C=C1CCC1C2=CCC2(C)C1CCC2(O)C(=O)CCl` (configuration not stated) was 205 to 206 °C. `CCOC(=O)N1CCC(C(=O)O)=Cc2ccccc21` gave a melting point of 176 °C. Next, `Cn1c(C(F)(F)F)cc(=O)n(-c2ccc3snc(C4OCC(CS(C)=O)O4)c3c2)c1=O` (configuration not stated): 72 to 75 °C; `COc1ccc(C(=O)NC(=O)N2CC2C#N)cc1` (configuration not stated): 130 to 132 °C; `CC1(C)C(=O)Nc2ccc(-c3ccc(C#N)s3)cc21`: 255 to 256 °C.

In the case of `CCCn1c(COCC)nc2c(N)nc3cc(OC4CCN(C(=O)NC(C)C)CC4)ccc3c21`, the melting point lay in the range of 163 to 164 °C.

In turn, `O=C(NC(=O)c1c(Cl)cccc1Cl)Nc1ccc(Cl)cn1` showed a melting point of 220 to 222 °C.

On to `CC(C)CCN1CCC(CNC(=O)c2cc(Cl)c(N)[nH]c2=O)CC1`, for which the melting point lay within 131 to 135 °C.

`CN(C)CCCN1N=C2C(=Cc3ccccc3)CCCCC2C1c1ccccc1` (configuration not stated) displayed a melting point of 92 to 94 °C. Turning to `CCCc1c(OCCCOc2ccc(Br)cc2)ccc2c1OC(CCC(=O)O)(CCC(=O)O)CC2=O`, the melting point was 136 °C. Next, `CC(C)(C)[Si](OCCCc1ccc(OCC(=O)O)cc1)(c1ccccc1)c1ccccc1`: 87 to 88 °C. The compound `CCNCc1nc(-c2ncn3c2CN(C)C(=O)c2cc(F)ccc2-3)no1` came in with a melting point of 166 to 168 °C. Next, `COc1ccccc1N1CCN(CCCNC(=O)c2cccc3c(=O)cc(-c4ccccc4)[nH]c23)CC1`: 135 to 140 °C; `CC(C)(C(=O)Nc1ccc(Cl)cc1)/C(F)=C/Br`: 131 to 133 °C. `O=c1[nH]c2ccccc2c(=O)n1CCCCN1CCC(OC(c2ccccc2)c2ccccc2)CC1` showed a melting point of 140 to 142 °C. The value for `CC(C)(C)OC(=O)NC(Cc1ccccc1)C(=O)Oc1ccc(/C=c2\[nH]c(=O)/c(=C/c3ccccc3)[nH]c2=O)nc1` (configuration not stated) was 188 °C; that for `CS(=O)(=O)c1ccc(-c2cc(C(=O)c3ccc(Cl)cc3Cl)sc2N2CCOCC2)cc1` was 170 °C; that for `O=C(c1ccc(F)cc1)N1CCN(CC(O)Cn2c3ccccc3c3ccccc32)CC1` (configuration not stated) was 70 to 80 °C. Next, `CN1CCC(Nc2ccccc2C(=O)c2ccccc2Cl)CC1`: 128 to 129 °C; `Nc1c(-c2cccc(Oc3ccccc3)c2)cnc2ncnn12`: 248 to 250 °C.
